Test [1] has as its target T1, PD brain-derived alpha-synuclein aggregates (Homo sapiens, UniProt P37840).
T1 construct: from tissue; host or cells: human PD donor brain, sarkosyl-insoluble pellet
Kind of test: Saturation binding on PD brain-derived alpha-synuclein aggregates by micro-radiobinding. The following applies: PD brain tissue homogenates. As to the method:
The procedure was adapted from the protocol described in Spillantini et al., 1998. Frozen tissue blocks from PD donors were thawed on ice and homogenized using a glass dounce homogenizer. The homogenate was then centrifuged at 11,000×g (12,700 RPM) in an ultracentrifuge (Beckman, XL100K) for 20 minutes at 4° C. using a pre-cooled 70.1 rotor (Beckman, 342184). Pellets were resuspended in extraction buffer [10 mM Tris-HCl pH 7.4, 10% sucrose, […], 1% protease inhibitor (Calbiochem 539131), 1 mM EGTA, 1% phosphatase inhibitor (Sigma P5726 and P0044)] and centrifuged at 15,000×g (14,800 RPM, a 70.1 Ti rotor) for 20 minutes at 4° C. […]
PD brain-derived alpha-synuclein aggregates were spotted onto microarray slides. […] Following exposure, phosphor storage screens were scanned with a laser imaging system (Typhoon FLA 7000) to readout the signal from the radiobinding experiments described above. Quantification of the signal was performed using the ImageJ software package. Non-specific signal was determined with an excess of non-radiolabelled reference ligand (Example-1 at 2 μM) and specific binding was calculated by subtracting the non-specific signal from the total signal. Kd values were calculated in GraphPad Prism7 by applying a nonlinear regression curve fit using a one site specific binding model.

The subject of the next test is Tau aggregates. The test can be described thus: High resolution micro-autoradiography on AD tissue containing pathological Tau aggregates. Format: binding, human. Here is the method: (§1) The protocol was adapted from Marquie et al., 2015. Sections were incubated with tritiated example compound 1 ([^3H]-Example-1) at 10 nM or 20 nM or a reference Tau ligand ([^3H]-Tau-Ref at 20 nM for one hour at room temperature (RT). Sections were then washed as follows: One time in ice-cold 50 mM Tris-HCl pH 7.4 buffer for one minute, two times in 70% ice-cold ethanol for one minute, one time in ice-cold 50 mM Tris-HCl pH 7.4 buffer for one minute and finally rinsed briefly in ice-cold distilled water. Sections were subsequently dried and then exposed to Ilford Nuclear Emulsion Type K5 (Agar Scientific, AGP9281) in a light-proof slide storage box. After five days, the sections were developed by immersing them successively in the following solutions: 1.) Ilford Phenisol Developer (1:5 dilution in H2O, Agar Scientific, AGP9106), 2.) Ilfostop solution (1:20 dilution in H2O, Agar Scientific, AGP9104), 3.) Ilford Hypam Fixer (1:5 dilution in H2O, Agar Scientific, AGP9183) and finally rinsed with H2O.
When indicated, immunostaining was also performed on the same section. For image acquisition, sections were mounted using ProLong Gold Antifade reagent (Invitrogen P36930) and imaged on a Panoramic150 Slide Scanner (3DHistech) with a 20×objective capturing separately brightfield and fluorescent images.

Test [2] deals with T2, alpha-synuclein aggregates (Lewy bodies and Lewy neurites) (Homo sapiens, UniProt P37840).
T2 construct: performed on frozen human brain sections from different alpha-synucleinopathy cases; from tissue; host or cells: frozen human brain sections (PD, PDD, MSA, DLB, LBV)
Kind of test: High resolution micro-autoradiography, target engagement in alpha-synucleinopathy tissues. Format: binding. The following applies: frozen human brain sections, PD, MSA, DLB, LBV, PDD; 10 nM or 20 nM. As to the method:
as §1
When indicated, immunostaining was also performed on the same section. For image acquisition, sections were mounted using ProLong Gold Antifade reagent (Invitrogen P36930) and imaged on a Panoramic150 Slide Scanner (3DHistech) with a 20×objective capturing separately brightfield and fluorescent images. […]

Test [3] deals with T3, pathological alpha-synuclein aggregates (Homo sapiens, UniProt P37840, G51D).
T3 construct: Frozen human brain sections from one familial PD case; from tissue; host or cells: frozen human brain sections: SNCA (G51D) familial PD, PDD, MSA, LBV, non-demented controls
The test can be described thus: Autoradiography on frozen human brain sections (specific binding, Kd). Here is the method: (§2) Frozen human brain sections from one familial PD case (alpha-synuclein [SNCA] gene G51D missense mutation), labelled as SNCA (G51D), one PDD case, one MSA case, one LBV case and two non-demented control (NDC) cases were first briefly fixed for 15 minutes at 4° C. with 4% paraformaldehyde (Sigma, 252549) and washed three times for five minutes with PBS (Dulbecco's phosphate buffered saline, Sigma) at RT. All slides were then equilibrated for 20 minutes in 50 mM Tris-HCl pH 7.4 buffer prior to use in the experiment. Each brain section was incubated with a fixed concentration (10 nM) of tritiated example compound 1 ([^3H]-Example-1) or increasing concentrations of [^3H]-Example-1 in the range of 2.5 nM to 80 nM of tritiated compound in Tris-HCl buffer for two hours at RT (Total binding, ‘TB’). To determine non-specific (NSB) binding ([^3H]-Example-1 was mixed with 5 μM of non-radiolabelled compound (Example 1, self-block, ‘NSB’). The slides were washed and then exposed and scanned in a real-time autoradiography system (BeaQuant instrument, ai4R). Specific binding was determined by subtracting the non-specific signal from the total signal. Kd values were calculated in GraphPad Prism7 by applying a nonlinear regression curve fit using a one site specific binding model.

The subject of test [4] is pathological alpha-synuclein aggregates. Described as above. Conditions: 10 nM. As to the method:
as §2

“Also recorded” adds a separate entry of the source.

The record followed here is patent publication US20250018068A1, “4H-IMIDAZO[1,5-B]PYRAZOLE DERIVATIVES FOR DIAGNOSIS” (AC IMMUNE SA, priority 2021, published 2025).

With `[3H]c1cncc(N2Cc3cc(-c4cnc(N5CC[C@H](F)C5)c([3H])c4)nn3C2=O)c1` [[^3H]-Example-1], the Kd in test [1] stood at 18 nM; in test [3] (human brain tissue sections, familial PD case (SNCA G51D missense mutation), autoradiography), 44 nM. In the test with Tau aggregates (AD brain tissue), the “Selectivity for alpha-synuclein over Tau pathological aggregates” value is “good selectivity for alpha-synuclein over Tau”. Moreover, in the test on Tau aggregates (AD tissue, compared to reference Tau ligand [3H]-Tau-Ref), the “Target engagement on Tau aggregates in AD brain tissue” value is recorded as “did not display specific target engagement; also recorded: No accumulation of silver grains”. Moreover, the “Target engagement on Lewy bodies and Lewy neurites (silver grains co-localized with a-syn-pS129)” value in test [2] was “strong target engagement”. Also, the “Autoradiography signal in a genetic PD case” value in test [3] (2.5 nM to 80 nM, SNCA (G51D) brain sections) is reported as “dose-dependent autoradiography signal”. Besides, in test [4] (non-demented control (NDC) brain sections), the “Autoradiographic signal in non-demented control cases” value is “very weak”. The “Target engagement in alpha-synucleinopathy tissues by autoradiography” value in test [4] (one PDD, one LBV and one MSA case) is recorded as “displayed target engagement”.

The Kd is the concentration at which binding is half-saturated.
